pEC50, pIC50: −log10 of the molar value. Where two headings read alike, the source gives them in different places. Each block holds one compound with its values, some of them ahead of it.
Legend:
[1] = tested on: neuroblastoma cells (SK-N-SH)
[2] = target: T1, glucocorticoid receptor (GR) (Homo sapiens, UniProt P04150); experiment: GR-Switchgear; type: cell-based; settings: reference chemical
T1 sequence (P04150 1-777): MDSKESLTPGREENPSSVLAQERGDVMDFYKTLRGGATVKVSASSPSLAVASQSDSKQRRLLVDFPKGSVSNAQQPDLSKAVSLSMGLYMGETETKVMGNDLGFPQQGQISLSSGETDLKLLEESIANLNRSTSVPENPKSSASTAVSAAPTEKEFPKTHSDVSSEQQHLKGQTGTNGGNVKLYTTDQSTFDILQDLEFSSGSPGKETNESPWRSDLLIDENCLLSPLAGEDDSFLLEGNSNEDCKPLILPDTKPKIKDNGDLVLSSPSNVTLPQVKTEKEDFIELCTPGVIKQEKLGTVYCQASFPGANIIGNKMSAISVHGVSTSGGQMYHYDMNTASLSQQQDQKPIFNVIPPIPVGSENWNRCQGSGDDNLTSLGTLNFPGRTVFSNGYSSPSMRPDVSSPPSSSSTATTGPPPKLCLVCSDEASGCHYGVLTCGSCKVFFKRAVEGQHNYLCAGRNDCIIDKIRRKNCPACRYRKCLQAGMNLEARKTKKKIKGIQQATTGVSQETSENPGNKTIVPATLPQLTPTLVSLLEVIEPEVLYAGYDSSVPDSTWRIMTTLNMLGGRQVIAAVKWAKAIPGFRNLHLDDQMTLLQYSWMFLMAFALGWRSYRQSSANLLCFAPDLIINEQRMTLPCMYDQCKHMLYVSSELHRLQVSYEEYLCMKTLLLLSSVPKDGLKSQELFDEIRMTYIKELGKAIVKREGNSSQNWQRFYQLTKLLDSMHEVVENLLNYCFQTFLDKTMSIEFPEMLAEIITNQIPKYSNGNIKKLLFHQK

[3] = tested on: monocyte cell line (THP1); settings: read-out: EC50 value in literature; ref Leusch et al., 2014; cited from earlier work
[4] = tested on: monocyte cell line (THP1); experiment: THP1-cp cytokine production
algae photosynthesis [5] = experiment: I-PAM algae photosynthesis inhibition; type: cell-based
algae growth [6] = experiment: Algae growth inhibition; type: cell-based
algae photosynthesis [7] = settings: read-out: EC50 value in literature, cited from earlier work
algae growth [8] = settings: read-out: EC50 value in literature; ref Escher et al., 2008a; cited from earlier work
[9] = target: T2, peroxisome proliferator-activated receptor (PPARγ) (Homo sapiens, UniProt P37231); experiment: PPARγ-GeneBLAzer-Anta; type: cell-based; settings: antagonist mode
T2 sequence (P37231 238-505 limits assumed): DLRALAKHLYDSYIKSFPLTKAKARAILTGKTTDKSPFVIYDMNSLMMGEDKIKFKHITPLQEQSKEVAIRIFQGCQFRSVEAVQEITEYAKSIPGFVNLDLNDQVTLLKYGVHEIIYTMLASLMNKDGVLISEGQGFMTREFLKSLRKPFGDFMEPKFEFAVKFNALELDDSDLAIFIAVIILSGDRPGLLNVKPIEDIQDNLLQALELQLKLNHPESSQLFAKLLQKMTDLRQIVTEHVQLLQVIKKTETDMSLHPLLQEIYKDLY

[10] = target: T2, peroxisome proliferator-activated receptor (PPARγ); settings: read-out: EC50 value in literature; antagonist mode; ref Invitrogen, 2007b; cited from earlier work
[11] = target: T3, progesterone receptor (PR) (Homo sapiens, UniProt P06401); experiment: PR-CALUX progestagenic effects; type: cell-based; settings: reference chemical
T3 sequence (P06401 1-933): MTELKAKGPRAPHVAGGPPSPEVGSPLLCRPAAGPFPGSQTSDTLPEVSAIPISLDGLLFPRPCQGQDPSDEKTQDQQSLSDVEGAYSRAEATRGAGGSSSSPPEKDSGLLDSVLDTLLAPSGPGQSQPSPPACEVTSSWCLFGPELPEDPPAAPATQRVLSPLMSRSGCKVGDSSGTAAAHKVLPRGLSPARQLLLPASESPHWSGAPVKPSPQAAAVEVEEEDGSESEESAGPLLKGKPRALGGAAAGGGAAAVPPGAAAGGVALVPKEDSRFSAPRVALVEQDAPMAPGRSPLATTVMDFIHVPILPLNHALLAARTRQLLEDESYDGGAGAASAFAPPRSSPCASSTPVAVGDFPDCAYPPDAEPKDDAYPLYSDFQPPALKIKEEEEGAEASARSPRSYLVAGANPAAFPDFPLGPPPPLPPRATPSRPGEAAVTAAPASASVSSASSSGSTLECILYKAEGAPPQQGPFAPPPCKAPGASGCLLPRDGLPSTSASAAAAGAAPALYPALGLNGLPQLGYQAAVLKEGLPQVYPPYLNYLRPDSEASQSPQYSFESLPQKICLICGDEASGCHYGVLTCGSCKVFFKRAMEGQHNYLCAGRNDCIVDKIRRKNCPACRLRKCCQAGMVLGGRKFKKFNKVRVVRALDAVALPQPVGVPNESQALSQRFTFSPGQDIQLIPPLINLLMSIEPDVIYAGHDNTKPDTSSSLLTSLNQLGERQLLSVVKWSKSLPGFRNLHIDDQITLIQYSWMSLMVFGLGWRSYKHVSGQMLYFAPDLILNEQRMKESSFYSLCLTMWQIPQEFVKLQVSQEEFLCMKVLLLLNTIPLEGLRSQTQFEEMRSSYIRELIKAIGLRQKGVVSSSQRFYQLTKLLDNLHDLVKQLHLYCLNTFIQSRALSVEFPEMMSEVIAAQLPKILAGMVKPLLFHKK

Caco-2 cells = experiment: Caco-2 NRU cytotoxicity; type: cell-based, human; settings: carrier solvent as positive control
[12] = target: T3, progesterone receptor (PR); experiment: PR-CALUX-Anta; type: cell-based; settings: antagonist mode, 20% suppression
Jurkat cell line = experiment: Jurkat E6-1 osmotic stress assay; type: cell-based; settings: reference chemical
[13] = tested on: arylhydrocarbon receptor (AhR); experiment: AhR CAFLUX; type: cell-based; settings: reference chemical
[14] = tested on: arylhydrocarbon receptor (AhR); settings: read-out: EC50 value in literature; ref Macova et al., 2010; cited from earlier work
[15] = tested on: thyroid activity (cell proliferation); experiment: T-SCREEN cell proliferation assay, thyroid effects; type: cell-based
[16] = tested on: thyroid activity (cell proliferation); settings: read-out: EC50 value in literature; ref Gutleb et al., 2005; cited from earlier work
Nrf2-MDA-MB cells [17] = experiment: cells; type: cell-based, human
Nrf2-Keap-ARE32 pathway = settings: read-out: EC50 value in literature; ref Escher et al., 2012; cited from earlier work
Nrf2-MDA-MB cells [18] = settings: read-out: EC50 value in literature; ref Escher et al., 2012; cited from earlier work

- EC10 [1]: 0.11 M
Structure (SMILES): C[S+](C)[O-] [DMSO, Dimethylsulfoxide]

Structure (SMILES): C[C@@H]1C[C@H]2[C@@H]3CCC4=CC(=O)C=C[C@]4(C)[C@@]3(F)[C@@H](O)C[C@]2(C)[C@@]1(O)C(=O)CO [Dexamethasone]
- EC10 [2]: EC10 (0.5 nM); EC50 (2.6 nM)
- pEC50 [3]: 8.57
- pEC50 ([4]; Homo sapiens, THP-1): 7.35
- EC10 ([4]; reference chemical): 2.1 nM

Structure (SMILES): CN(C)C(=O)Nc1ccc(Cl)c(Cl)c1 [Diuron]
- pEC50 (algae photosynthesis [5]): 8.22
- pEC50 (algae growth [6]): 7.60
- pEC50 (algae photosynthesis [7]; ref Escher et al., 2008a): 7.89
- pEC50 (algae photosynthesis [7]; ref Macova et al., 2010): 7.16
- pEC50 (algae growth [8]): 6.87

- ECSR0.2 ([9]; 20% suppression): 3.0 nM
- pIC50 ([9]; read-out: ECSR0.5, 50% suppression): 8.08
Structure (SMILES): O=C(Nc1ccccc1)c1cc([N+](=O)[O-])ccc1Cl [GW9662]
- pEC50 [10]: 8.46

- EC10 [11]: 0.3 nM
Structure (SMILES): C#C[C@]1(O)CC[C@H]2[C@@H]3CCC4=CC(=O)CC[C@@H]4[C@H]3CC[C@@]21CC [Levonorgestrel]

Structure (SMILES): CO [Methanol]
- EC10 (Caco-2 cells): 0.4 M

Structure (SMILES): CC#C[C@]1(O)CC[C@H]2[C@@H]3CCC4=CC(=O)CCC4=C3[C@@H](c3ccc(N(C)C)cc3)C[C@@]21C [Mifepristone]
- ECSR0.2 [12]: 20 pM

Structure (SMILES): CCCCCCCCCCCCCC(=O)O[C@@H]1[C@@H](C)[C@@]2(O)[C@@H](C=C(CO)C[C@]3(O)C(=O)C(C)=C[C@@H]23)[C@@H]2C(C)(C)[C@]12OC(C)=O [PMA, Phorbol-12-myristate-13-acetate]
- EC10 (Jurkat cell line): 3 nM
- pEC50 (Jurkat cell line): 7.70

Structure (SMILES): Clc1cc2c(cc1Cl)Oc1cc(Cl)c(Cl)cc1O2 [TCDD, 2,3,7,8-TCDD]
- EC10 [13]: 0.00065 nM
- pEC50 [13]: 11.10
- pEC50 [14]: 10.61

Structure (SMILES): N[C@@H](Cc1cc(I)c(Oc2ccc(O)c(I)c2)c(I)c1)C(=O)O [Triiodothyronine]
- pEC50 [15]: 9.13
- EC10 ([15]; reference chemical): 0.28 nM
- pEC50 [16]: 9.72

- pEC50 (Nrf2-MDA-MB cells [17]; Homo sapiens): 3.75
- EC10 (Nrf2-MDA-MB cells [17]; human): 103000 nM
Structure (SMILES): CC(C)(C)c1cc(O)ccc1O [tBHQ, tert-Butylhydroquinone]
- pEC50 (Nrf2-Keap-ARE32 pathway): 5.88
- pEC50 (Nrf2-MDA-MB cells [18]): 4.34

— publication PMC4776319 (Water research, 2015)
